Results taken from US8003648B2, “Heterocyclic GPR40 modulators” (Amgen Inc., priority 2006, dated 2011).

Target: T1, human GPR40 (Homo sapiens, UniProt O14842)
T1 construct: host or cells: CHO cells
Experiment: Cell-based aequorin assay using human GPR40
Details: activation of human GPR40; CHO cells stably transfected with GPR40 and Aequorin; 0.01% HSA; aequorin luminescence
Description: Cell-based aequorin assays were employed to characterize the modulatory activity of compounds on the GPR40 signaling pathway. In an exemplary assay, CHO cells were stably transfected with both GPR40 and Aequorin (Euroscreen). Cells were detached from the tissue culture dish with 2 mL of trypsin (0.25% (w/v)). Trypsinization was halted with 28 mL of Hanks Buffered Salt Solution containing 20 mM Hepes (H/HBSS) and 0.01% fatty acid-free human serum albumin (HSA). Coelantrazine is added to 1 ug/mL, and the cells were incubated for 2 hours at room temperature. Compounds were dissolved in DMSO for preparation of 10 mM stock solutions. Compounds were diluted in H/HBSS containing 0.01% HSA. Serial dilutions of the test compounds were prepared to determine dose response.
Aequorin luminescence measurements were made using an EG&G Berthold 96-well luminometer, and the response was measured over a 20 second interval after cells and compounds were mixed. The maximum relative light units was plotted to determine dose response. The EC50 (effective concentration to reach 50% maximal response) was determined from the dose response plot.
Table 1 presents representative data (EC50 values) obtained for exemplary compounds of the invention for the activation of human GPR40. […]

T1 sequence (O14842 whole entry): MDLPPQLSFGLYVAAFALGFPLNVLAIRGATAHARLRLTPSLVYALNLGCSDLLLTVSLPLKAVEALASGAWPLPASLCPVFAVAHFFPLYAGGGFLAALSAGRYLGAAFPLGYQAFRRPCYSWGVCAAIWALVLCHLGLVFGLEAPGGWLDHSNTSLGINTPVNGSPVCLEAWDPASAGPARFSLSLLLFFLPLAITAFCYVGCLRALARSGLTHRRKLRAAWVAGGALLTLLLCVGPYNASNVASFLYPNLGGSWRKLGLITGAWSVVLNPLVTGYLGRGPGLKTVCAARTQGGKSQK

SMILES | EC50 [nM]
CC1(C)CCC=C1c1ccc(COc2ccc([C@H](CC(=O)O)c3ccon3)cc2)cc1OC(F)(F)F [Example 36, (S)-3-(4-(4-(5,5-Dimethylcyclopent-1-enyl)-3-(trifluoromethoxy)benzyloxy)phenyl)-3-(isoxazol-3-yl)propanoic acid] | 100 to 1000
CC(C)c1ccc(COc2ccc([C@H](CC(=O)O)c3ccon3)cc2)cc1OC(F)(F)F [Example 37, (S)-3-(4-(4-Isopropyl-3-(trifluoromethoxy)benzyloxy)phenyl)-3-(isoxazol-3-yl)propanoic acid] | 10 to 100
Cc1cc([C@@H](CC(=O)O)c2ccc(OCc3cccc(-c4ccc(C(F)(F)F)cc4)c3)cc2)no1 [Example 39, (S)-3-(4-(3-(4-(Trifluoromethyl)phenyl)benzyloxy)phenyl)-3-(5-methylisoxazol-3-yl)propanoic acid] | 100 to 10000
CC1(C)CCC(C)(C)c2cc(COc3ccc([C@@H](CC(=O)O)c4ccon4)cc3)ccc21 [Example 41, (R)-3-(Isoxazol-3-yl)-3-(4-((5,5,8,8-tetramethyl-5,6,7,8-tetrahydronaphthalen-2-yl)methoxy)phenyl)propanoic acid] | 1000 to 10000
O=C(O)C[C@@H](c1ccc(OCCOc2ccc(C(F)(F)F)cc2)cc1)c1ccon1 [Example 47, (S)-3-(Isoxazol-3-yl)-3-(4-(2-(4-(trifluoromethyl)phenoxy)ethoxy)phenyl)propanoic acid] | 100 to 1000
O=C(O)C[C@@H](c1ccc(OCCCOc2ccc(C(F)(F)F)cc2)cc1)c1ccon1 [Example 48] | 100 to 1000
O=C(O)C[C@@H](c1ccc(OCCCCOc2ccc(C(F)(F)F)cc2)cc1)c1ccon1 [Example 49] | 100 to 1000
Cc1oc(-c2ccc(C(F)(F)F)cc2)nc1COc1ccc([C@H](CC(=O)O)c2ccon2)cc1 [Example 50, (S)-3-(Isoxazol-3-yl)-3-(4-((5-methyl-2-(4-(trifluoromethyl)phenyl)oxazol-4-yl)methoxy)phenyl)propanoic acid] | 100 to 1000
Cc1oc(-c2ccc(C(F)(F)F)cc2)cc1COc1ccc([C@H](CC(=O)O)c2ccon2)cc1 [Example 52, (S)-3-(Isoxazol-3-yl)-3-(4-((2-methyl-5-(4-(trifluoromethyl)phenyl)furan-3-yl)methoxy)phenyl)propanoic acid] | 10 to 100
CCN(CC)Cc1ccc(-c2nc(C)c(COc3ccc([C@H](CC(=O)O)c4ccon4)cc3)s2)cc1 [Example 54, (S)-3-(4-((2-(4-((Diethylamino)methyl)phenyl)-4-methylthiazol-5-yl)methoxy)phenyl)-3-(isoxazol-3-yl)propanoic acid] | 1000 to 10000
Cc1nc(-c2ccc(CCCO)cc2)sc1COc1ccc([C@H](CC(=O)O)c2ccon2)cc1 [Example 55, (S)-3-(4-((2-(4-(3-Hydroxypropyl)phenyl)-4-methylthiazol-5-yl)methoxy)phenyl)-3-(isoxazol-3-yl)propanoic acid] | 1000 to 10000
CCCCc1ccc(-c2cc(COc3ccc([C@H](CC(=O)O)c4ccon4)cc3)c(C)o2)cc1 [Example 56] | 100 to 1000
Cc1nc(-c2ccc(Cl)cc2)sc1COc1ccc([C@H](CC(=O)O)c2ccon2)cc1 [Example 57, (S)-3-(Isoxazol-3-yl)-3-(4-((4-methyl-2-(4-chlorophenyl)thiazol-5-yl)methoxy)phenyl)propanoic acid] | 10 to 100
Cc1ccc(-c2nc(C)c(COc3ccc([C@H](CC(=O)O)c4ccon4)cc3)s2)cc1 [Example 58, (S)-3-(Isoxazol-3-yl)-3-(4-((4-methyl-2-(4-methylphenyl)thiazol-5-yl)methoxy)phenyl)propanoic acid] | 10 to 100
Cc1ccc(-c2nc(C)c(COc3ccc([C@@H](CC(=O)O)c4ccon4)cc3)s2)cc1 [Example 59, (R)-3-(Isoxazol-3-yl)-3-(4-((4-methyl-2-(4-methylphenyl)thiazol-5-yl)methoxy)phenyl)propanoic acid] | 1000 to 10000
O=C(O)C[C@@H](c1ccc(OCc2ccc(-c3ccc(C(F)(F)F)cc3)s2)cc1)c1ccon1 [Example 61, (3S)-3-(3-Isoxazolyl)-3-(4-(((5-(4-(trifluoromethyl)phenyl)-2-thienyl)methyl)oxy)phenyl)propanoic acid] | 10 to 100
Cc1cc(-c2ccc(C(F)(F)F)cc2)sc1COc1ccc([C@H](CC(=O)O)c2ccon2)cc1 [Example 62, (3S)-3-(3-Isoxazolyl)-3-(4-(((3-methyl-5-(4-(trifluoromethyl)phenyl)-2-thienyl)methyl)oxy)phenyl)propanoic acid] | 10 to 100
COc1ccccc1-c1nc(COc2ccc([C@H](CC(=O)O)c3ccon3)cc2)no1 [Example 64] | 1000 to 10000
O=C(O)C[C@@H](c1ccc(OCc2noc(-c3ccc(C(F)(F)F)cc3)n2)cc1)c1ccon1 [Example 65] | 1000 to 10000
O=C(O)C[C@@H](c1ccc(OCc2nc(-c3ccc(Cl)cc3)no2)cc1)c1ccon1 [Example 69] | 1000 to 10000
O=C(O)C[C@@H](c1ccc(OCc2nc(-c3c(Cl)cccc3Cl)no2)cc1)c1ccon1 [Example 71] | 1000 to 10000
CCCCOc1ccc(-c2nc(C)c(COc3ccc([C@H](CC(=O)O)c4ccon4)cc3)s2)cc1F [Example 75, (3S)-3-(4-((2-(4-Butoxy-3-fluorophenyl)-4-methylthiazol-5-yl)methoxy)phenyl)-3-(isoxazol-3-yl)propanoic acid] | 10 to 100
Cc1nc(-c2ccc(CC(C)C)cc2)sc1COc1ccc([C@H](CC(=O)O)c2ccon2)cc1 [Example 78] | 10 to 100
CCCCOc1ccc(-c2nc(C)c(COc3ccc([C@H](CC(=O)O)c4ccon4)cc3)s2)cc1Cl [Example 79] | 10 to 100
Cc1nc(-c2ccc(OC(C)C)c(Cl)c2)sc1COc1ccc([C@H](CC(=O)O)c2ccon2)cc1 [Example 81] | 10 to 100
CC12CCC(c3ncc(COc4ccc([C@H](CC(=O)O)c5ccon5)cc4)nc31)C2(C)C (stereo partly shown) [Example 83] | 1000 to 10000

Continued, values first:

EC50 [nM] | SMILES
10 to 100 | CC1(C)CCC=C1c1cc(COc2ccc([C@H](CC(=O)O)c3ccon3)cc2)ccc1OC(F)(F)F [Example 38, (S)-3-(4-(3-(5,5-Dimethylcyclopent-1-enyl)-4-(trifluoromethoxy)benzyloxy)phenyl)-3-(isoxazol-3-yl)propanoic acid]
10 to 100 | CC1(C)CCC(C)(C)c2cc(COc3ccc([C@H](CC(=O)O)c4ccon4)cc3)ccc21 [Example 40, (S)-3-(Isoxazol-3-yl)-3-(4-((5,5,8,8-tetramethyl-5,6,7,8-tetrahydronaphthalen-2-yl)methoxy)phenyl)propanoic acid]
100 to 1000 | CC1(C)CCC(C)(C)c2cc(COc3ccc(C(CC(=O)O)C4=NOCC4)cc3)ccc21 (stereo not shown) [Example 42, 3-(4,5-Dihydroisoxazol-3-yl)-3-(4-((5,5,8,8-tetramethyl-5,6,7,8-tetrahydronaphthalen-2-yl)methoxy)phenyl)propanoic acid]
100 to 1000 | CCOCCOc1cc(COc2ccc([C@H](CC(=O)O)c3ccon3)cc2)c(Br)cc1C(C)(C)C [Example 46, (S)-3-(4-(2-Bromo-4-tert-butyl-5-(2-ethoxyethoxy)benzyloxy)phenyl)-3-(isoxazol-3-yl)propanoic acid]
100 to 1000 | Cc1nc(-c2ccc(C(F)(F)F)cc2)oc1COc1ccc([C@H](CC(=O)O)c2ccon2)cc1 [Example 51, (S)-3-(Isoxazol-3-yl)-3-(4-((4-methyl-2-(4-(trifluoromethyl)phenyl)oxazol-5-yl)methoxy)phenyl)propanoic acid]
10 to 100 | Cc1oc(-c2ccc(Cl)cc2)cc1COc1ccc([C@H](CC(=O)O)c2ccon2)cc1 [Example 53, (S)-3-(4-((5-(4-Chlorophenyl)-2-methylfuran-3-yl)methoxy)phenyl)-3-(isoxazol-3-yl)propanoic acid]
10 to 100 | CCCCc1ccc(-c2ccc(COc3ccc([C@H](CC(=O)O)c4ccon4)cc3)s2)cc1 [Example 60, (3S)-3-(4-(((5-(4-butylphenyl)-2-thienyl)methyl)oxy)phenyl)-3-(3-isoxazolyl)propanoic acid]
1000 to 10000 | O=C(O)C[C@@H](c1ccc(OCc2noc(-c3ccccc3)n2)cc1)c1ccon1 [Example 63]
1000 to 10000 | O=C(O)C[C@@H](c1ccc(OCc2noc(-c3cccc(C(F)(F)F)c3)n2)cc1)c1ccon1 [Example 66]
1000 to 10000 | O=C(O)C[C@@H](c1ccc(OCc2nc(-c3ccccc3)no2)cc1)c1ccon1 [Example 67]
1000 to 10000 | O=C(O)C[C@@H](c1ccc(OCc2nc(-c3cccc(C(F)(F)F)c3)no2)cc1)c1ccon1 [Example 68]
100 to 1000 | CC(C)(C)c1ccc(-c2noc(COc3ccc([C@H](CC(=O)O)c4ccon4)cc3)n2)cc1 [Example 70]
10 to 100 | Cc1nc(-c2cccc(C(F)(F)F)c2)sc1COc1ccc([C@H](CC(=O)O)c2ccon2)cc1 [Example 72, (3S)-3-(Isoxazol-3-yl)-3-(4-((4-methyl-2-(3-(trifluoromethyl)phenyl)thiazol-5-yl)methoxy)phenyl)propanoic acid]
10 to 100 | Cc1nc(-c2ccc(C(C)(C)C)cc2)sc1COc1ccc([C@H](CC(=O)O)c2ccon2)cc1 [Example 76]
10 to 100 | CCCCc1ccc(-c2nc(C)c(COc3ccc([C@H](CC(=O)O)c4ccon4)cc3)s2)cc1 [Example 77]
10 to 100 | CCCOc1c(C)cc(-c2nc(C)c(COc3ccc([C@H](CC(=O)O)c4ccon4)cc3)s2)cc1C [Example 80]
1000 to 10000 | CC12CCC(c3nc(COc4ccc([C@H](CC(=O)O)c5ccon5)cc4)cnc31)C2(C)C (stereo partly shown) [Example 82]
